Data reported in patent publication US7300939B2, “Substituted 1-propiolylpiperazine compounds, their preparation and use” (Gruenenthal GmbH, priority 2005, dated 2007).
Counter-ions that a name gives are not always drawn.

biological target: T1, mGluR5 receptor (Sus scrofa, UniProt I3LUI7); test: [3H]-MPEP binding in the mGluR5 receptor binding assay (pig brain homogenate); settings: 10 μM; pig brain homogenate; 5 nM [3H]-MPEP
T1 construct: from tissue; host or cells: pig brain halves without medulla, cerebellum and pons
Protocol: I. Method the Determination of the Inhibition of the [^3H]-MPEP Binding in the mGluR5 Receptor Binding Assay
Pig brain homogenate is prepared by homogenization (Polytron PT 3000, Kinematica AG, 10,000 revolutions per minute 90 seconds) of pig brain halves without medulla, cerebellum and pons in a buffer solution having a pH of 8.0 (30 mM of hepes, Sigma, order no. H3375+1 tablet of Complete to 100 ml, Roche Diagnostics, order no. 1836145) in a ratio of 1:20 (brain weight/volume) and differential centrifugation at 900×g and 40,000×g. In each case 450 μg of protein from brain homogenate are incubated with 5 nM [^3H]-MPEP (Tocris, order no. R1212) (MPEP=2-methyl-6-(3-methoxyphenyl)ethynylpyridine) and the compounds to be investigated (10 μM in the test) in a buffer solution (as above) in 250 μl incubation batches in 96-well microtiter plates at room temperature 60 min.
Thereafter, the batches are filtered with the aid of a Brandel cell harvester (Brandel, Robotic 9600 model) onto Unifilter plates with glass fiber filter mats (Perkin Elmer, order no. 6005177) and then rinsed with buffer solution (as above) 3 times with 250 μl per sample each time. The filter plates are then dried 60 min at 55° C. 30 μl Ultima Gold™ scintillator (Packard BioScience, order no. 6013159) are subsequently added per well and, after 3 hours, the samples are measured on a β-counter (Mikrobeta, Perkin Elmer). The non-specific binding is determined by addition of 10 μM of MPEP (Tocris, order no. 1212).

T1 sequence (I3LUI7 19-1212): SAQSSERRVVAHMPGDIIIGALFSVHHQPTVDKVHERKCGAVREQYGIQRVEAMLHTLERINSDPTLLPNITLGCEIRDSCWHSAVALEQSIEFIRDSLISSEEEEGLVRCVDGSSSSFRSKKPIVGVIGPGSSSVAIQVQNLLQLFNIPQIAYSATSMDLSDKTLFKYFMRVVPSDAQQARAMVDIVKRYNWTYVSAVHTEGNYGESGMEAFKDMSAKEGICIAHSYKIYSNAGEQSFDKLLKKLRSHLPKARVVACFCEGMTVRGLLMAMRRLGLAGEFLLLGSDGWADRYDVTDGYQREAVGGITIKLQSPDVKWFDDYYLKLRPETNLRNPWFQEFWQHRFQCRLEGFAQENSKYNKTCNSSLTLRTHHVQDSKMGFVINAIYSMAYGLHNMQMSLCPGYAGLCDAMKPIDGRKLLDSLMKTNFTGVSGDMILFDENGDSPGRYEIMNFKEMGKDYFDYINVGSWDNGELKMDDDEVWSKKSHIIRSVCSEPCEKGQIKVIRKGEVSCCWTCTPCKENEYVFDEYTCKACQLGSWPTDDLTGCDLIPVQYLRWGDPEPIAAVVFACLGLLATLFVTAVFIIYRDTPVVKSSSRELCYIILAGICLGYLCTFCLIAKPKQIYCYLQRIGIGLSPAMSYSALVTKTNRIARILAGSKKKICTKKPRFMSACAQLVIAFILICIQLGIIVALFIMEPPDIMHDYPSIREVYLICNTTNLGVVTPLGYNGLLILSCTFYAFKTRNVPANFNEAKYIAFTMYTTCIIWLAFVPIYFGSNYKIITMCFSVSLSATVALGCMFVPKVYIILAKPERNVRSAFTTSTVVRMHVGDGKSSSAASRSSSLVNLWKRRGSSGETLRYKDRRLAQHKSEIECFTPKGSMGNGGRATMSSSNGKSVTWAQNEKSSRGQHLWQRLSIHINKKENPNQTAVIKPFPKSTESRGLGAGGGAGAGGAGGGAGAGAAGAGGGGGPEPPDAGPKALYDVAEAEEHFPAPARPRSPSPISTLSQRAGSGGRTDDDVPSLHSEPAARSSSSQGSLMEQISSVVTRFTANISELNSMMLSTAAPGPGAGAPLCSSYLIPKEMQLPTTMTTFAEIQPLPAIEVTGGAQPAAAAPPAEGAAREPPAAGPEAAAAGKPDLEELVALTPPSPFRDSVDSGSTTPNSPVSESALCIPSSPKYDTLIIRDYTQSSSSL

Row | Compound | mGluR5-receptor (% inhibition 10 μM) in pigs
1 | CC(C)c1cccc(C#CC(=O)N2CCN(c3nccs3)CC2)c1 [Example AAA36, 4-(Thiazol-2-yl)-1-(3-(3-isopropylphenyl)propiolyl)piperazine] | 40%
2 | O=C(C#Cc1cccc(-c2ccccc2)c1)N1CCN(c2nccs2)CC1 [Example AAA37, 4-(Thiazol-2-yl)-1-(3-biphenyl-3-ylpropiolyl)piperazine] | 45%
3 | O=C(C#Cc1ccc2ccccc2c1)N1CCN(c2nccs2)CC1 [Example AAA38, 4-(Thiazol-2-yl)-1-(3-naphth-2-ylpropiolyl)piperazine] | 82%
4 | Cn1ccc2cc(C#CC(=O)N3CCN(c4nccs4)CC3)ccc21 [Example AAA39, 4-(Thiazol-2-yl)-1-(3-(1-methyl-indol-5-yl)propiolyl)piperazine] | 74%
5 | CSc1cccc(C#CC(=O)N2CCN(c3nccs3)CC2)c1 [Example AAA40, 4-(Thiazol-2-yl)-1-(3-(3-methylmercaptophenyl)propiolyl)piperazine] | 80%
6 | N#Cc1cc(C#CC(=O)N2CCN(c3nccs3)CC2)ccc1F [Example AAA41, 4-(Thiazol-2-yl)-1-(3-(3-cyano-4-fluorophenyl)propiolyl)piperazine] | 78%
7 | COCc1cccc(C#CC(=O)N2CCN(c3nccs3)CC2)c1 [Example AAA42, 4-(Thiazol-2-yl)-1-(3-(3-methoxymethylphenyl)propiolyl)piperazine] | 88%
8 | O=C(C#Cc1cccc(O)c1)N1CCN(c2nccs2)CC1 [Example AAA43, 4-(Thiazol-2-yl)-1-(3-(3-hydroxyphenyl)propiolyl)piperazine] | 83%
9 | CC(=O)Nc1cccc(C#CC(=O)N2CCN(c3nccs3)CC2)c1 [Example AAA44, 4-(Thiazol-2-yl)-1-(3-(3-acetaminophenyl)propiolyl)piperazine] | 30%
10 | COC(=O)c1cccc(C#CC(=O)N2CCN(c3nccs3)CC2)c1 [Example AAA49, 4-(Thiazol-2-yl)-1-(3-(3-carboxyphenyl)propiolyl)piperazine methyl ester] | 43%
11 | Cc1ccccc1C#CC(=O)N1CCN(c2nccs2)CC1.Cl [Example AAA53, 4-(Thiazol-2-yl)-1-(3-(2-tolyl)propiolyl)piperazine hydrochloride] | 33%
12 | Cc1ccc(C#CC(=O)N2CCN(c3nccs3)CC2)cc1.Cl [Example AAA55, 4-(Thiazol-2-yl)-1-(3-(4-tolyl)propiolyl)piperazine hydrochloride] | 41%
13 | Cl.O=C(C#Cc1ccccc1C(F)(F)F)N1CCN(c2nccs2)CC1 [Example AAA57, 4-(Thiazol-2-yl)-1-(3-(2-trifluoromethylphenyl)propiolyl)piperazine hydrochloride] | 81%
14 | O=C(C#Cc1ccc(F)cc1)N1CCN(c2nccs2)CC1 [Example AAA61, 4-(Thiazol-2-yl)-1-(3-(4-fluorophenyl)propiolyl)piperazine] | 76%
15 | CC1CN(c2nccs2)CCN1C(=O)C#Cc1ccccc1 (centres unmarked) [Example AAA63, 2-Methyl-4-(thiazol-2-yl)-1-(3-phenylpropiolyl)piperazine] | 89%
16 | C[C@H]1CN(c2nccs2)CCN1C(=O)C#Cc1ccccc1 [Example AAA64, (S)-2-Methyl-4-(thiazol-2-yl)-1-(3-phenylpropiolyl)piperazine] | 72%
17 | C[C@@H]1CN(c2nccs2)CCN1C(=O)C#Cc1ccccc1 [Example AAA65, (R)-2-Methyl-4-(thiazol-2-yl)-1-(3-phenylpropiolyl)piperazine] | 93%

Row | Compound | mGluR5-receptor (% inhibition 10 μM) in pigs
18 | CC1CN(c2nccs2)CCN1C(=O)C#Cc1ccccc1.Cl (centres unmarked) [Example AAA66, 2-Methyl-4-(thiazol-2-yl)-1-(3-phenylpropiolyl)piperazine hydrochloride] | 93%
19 | Cc1cccc(C#CC(=O)N2CCN(c3nccs3)CC2C)c1.Cl (centres unmarked) [Example AAA67, 2-Methyl-4-(thiazol-2-yl)-1-(3-(3-tolyl)propiolyl)piperazine hydrochloride] | 94%
20 | O=C(C#CC1CCCCC1)N1CCN(c2nccs2)CC1 [Example AAA69, 4-(Thiazol-2-yl)-1-(3-cyclohexylpropiolyl)piperazine] | 72%
21 | O=C(C#Cc1ccccc1)N1CCN(c2nccs2)CC1c1ccccc1 (centres unmarked) [Example AAA72, 2-Phenyl-4-(thiazol-2-yl)-1-(3-phenylpropiolyl)piperazine] | 81%
22 | O=C(C#Cc1ccco1)N1CCN(c2nccs2)CC1 [Example AAA73, 4-(Thiazol-2-yl)-1-(3-(2-furyl)propiolyl)piperazine] | 74%
23 | C[C@@H]1CN(c2nccs2)C[C@H](C)N1C(=O)C#Cc1ccccc1 [Example AAA75, cis-2,6-Dimethyl-4-(thiazol-2-yl)-1-(3-phenylpropiolyl)piperazine] | 97%
24 | CCOC(=O)c1csc(N2CCN(C(=O)C#Cc3ccccc3)CC2)n1 [Example AAA77, 4-(4-Carboxy-thiazol-2-yl)-1-(3-phenylpropiolyl)piperazine ethyl ester] | 89%
25 | CNC(=O)c1cnc(N2CCN(C(=O)C#Cc3ccccc3)CC2)s1 [Example AAA80, 4-(5-Methylaminocarbonylthiazol-2-yl)-1-(3-phenylpropiolyl)piperazine] | 76%
26 | CN(C)C(=O)c1cnc(N2CCN(C(=O)C#Cc3ccccc3)CC2)s1 [Example AAA81, 4-(5-Dimethylaminocarbonylthiazol-2-yl)-1-(3-phenylpropiolyl)piperazine] | 72%
27 | O=C(C#Cc1ccccc1)N1CCN(c2nc(-c3ccccc3)ns2)CC1 [Example AAA82, 4-(3-Phenyl-1,2,4-thiadiazol-5-yl)-1-(3-phenylpropiolyl)piperazine] | 37%
28 | O=C(C#Cc1ccccc1)N1CCN(c2nc(Cc3ccc(F)cc3)ns2)CC1 [Example AAA85, 4-(3-(4-Fluorobenzyl)-1,2,4-thiadiazol-5-yl)-1-(3-phenylpropiolyl)piperazine] | 93%
29 | O=C(C#Cc1ccccc1)N1CCN(c2ncc([N+](=O)[O-])s2)CC1 [Example AAA86, 4-(5-Nitrothiazol-2-yl)-1-(3-phenylpropiolyl)piperazine] | 31%
30 | Cc1cnc(N2CCN(C(=O)C#Cc3ccccc3)CC2)s1 [Example AAA88, 4-(5-Methylthiazol-2-yl)-1-(3-phenylpropiolyl)piperazine] | 94%
31 | Cc1nc(N2CCN(C(=O)C#Cc3ccccc3)CC2)sc1C [Example AAA89, 4-(4,5-Dimethylthiazol-2-yl)-1-(3-phenylpropiolyl)piperazine] | 86%
32 | Cc1csc(N2CCN(C(=O)C#Cc3ccccc3)CC2)n1 [Example AAA92, 4-(4-Methylthiazol-2-yl)-1-(3-phenylpropiolyl)piperazine] | 87%
33 | O=C(C#Cc1ccccc1)N1CCN(c2nc(C(F)(F)F)cs2)CC1 [Example AAA93, 4-(4-Trifluoromethylthiazol-2-yl)-1-(3-phenylpropiolyl)piperazine] | 52%

same assay, conditions: Table II; unit inferred

Row | Compound | IC50
34 | O=C(C#Cc1cccc(C(F)(F)F)c1)N1CCN(c2nccs2)CC1 [Example AAA58, 4-(Thiazol-2-yl)-1-(3-(3-trifluoromethylphenyl)propiolyl)piperazine hydrochloride] | 240 nM
35 | CCCCCC#CC(=O)N1CCN(c2nccs2)CC1 [Example AAA60, 4-(Thiazol-2-yl)-1-(3-pentylpropiolyl)piperazine] | 1850 nM
36 | CCC1CN(c2nccs2)CCN1C(=O)C#Cc1ccccc1 (centres unmarked) [Example AAA71, 2-Ethyl-4-(thiazol-2-yl)-1-(3-phenylpropiolyl)piperazine] | 38 nM
37 | O=C(C#Cc1ccoc1)N1CCN(c2nccs2)CC1 [Example AAA74, 4-(Thiazol-2-yl)-1-(3-(3-furyl)propiolyl)piperazine] | 3190 nM
38 | CCOC(=O)c1cnc(N2CCN(C(=O)C#Cc3ccccc3)CC2)s1 [Example AAA76, 4-(5-Carboxy-thiazol-2-yl)-1-(3-phenylpropiolyl)piperazine ethyl ester] | 170 nM
